# Source: patent US9127016B2, “Small molecule inhibitors of Dusp6 and uses therefor” (University of Pittsburgh—Of the Commonwealth System of …, priority 2009, dated 2015)
# Tests used:
# human Dusp1 = target: T1, human Dusp1 (Homo sapiens, UniProt P28562); experiment: Chemical complementation assay in HeLa cells, pERK restoration, Dusp1-Myc; format: cell-based; details: TPA stimulated
# T1 construct: expressed in transfected cells; host or cells: HeLa cells, pcDNA3.1, FuGene 6
# T1 sequence (P28562 1-367): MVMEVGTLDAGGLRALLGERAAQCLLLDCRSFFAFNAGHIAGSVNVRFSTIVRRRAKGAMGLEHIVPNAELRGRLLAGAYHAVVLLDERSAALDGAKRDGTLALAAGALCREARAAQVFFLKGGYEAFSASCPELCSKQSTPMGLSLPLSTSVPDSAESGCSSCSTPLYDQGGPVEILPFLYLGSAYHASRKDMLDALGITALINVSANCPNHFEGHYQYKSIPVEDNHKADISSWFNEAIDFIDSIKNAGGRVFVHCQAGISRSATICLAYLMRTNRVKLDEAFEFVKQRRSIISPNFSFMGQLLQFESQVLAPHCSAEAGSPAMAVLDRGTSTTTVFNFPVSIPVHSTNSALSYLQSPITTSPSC
# Description: (§1) These experiments were carried out essentially as described26. HeLa cells were obtained from ATCC (Manassas, Va.) and maintained in a humidified atmosphere of 5% CO2 at 37° C., Dulbecco's […] (DMEM) supplemented with 10% fetal bovine serum (FBS, HyClone, Logan, Utah), and 1% penicillin-streptomycin (Life Technologies, Inc., Rockville, Md.). c-Myc-Dusp6 and c-Myc-Dusp1 (also known as CL100) (kindly provided by Dr. Stephen Keyse, University of Dundee) were subcloned into pcDNA3.1 for ectopic expression in mammalian cells50. […] Plates were analyzed by three-channel multiparametric analysis for p-ERK and c-Myc-DUSP intensities in an area defined by nuclear staining using the Compartmental Analysis Bioapplication on an ArrayScan II high-content reader (Cellomics, Pittsburgh, Pa.). Restoration of ERK phosphorylation by BCI in Dusp6 overexpressing cells was quantified by Kolmogorov-Smirnov (KS) statistics as described previously using DUSP-transfected and vehicle treated control wells26. One thousand individual cells were gated for Dusp-Myc expression based on c-Myc immunostaining and analyzed for ERK phosphorylation. […] To quantify restoration of Erk phosphorylation in the Dusp expressing cells after compound treatment, KS values for each condition were normalized to the average KS value from four wells transfected with Dusp1 or Dusp6 and treated with vehicle. […]
# Dusp6 = target: T2, Dusp6 (Homo sapiens, UniProt Q16828); experiment: Chemical complementation assay in HeLa cells, pERK restoration, Dusp6-Myc; format: cell-based; design: expressed in transfected cells; host or cells: HeLa cells, pcDNA3.1, FuGene 6; details: TPA stimulated
# T2 sequence (Q16828 1-381): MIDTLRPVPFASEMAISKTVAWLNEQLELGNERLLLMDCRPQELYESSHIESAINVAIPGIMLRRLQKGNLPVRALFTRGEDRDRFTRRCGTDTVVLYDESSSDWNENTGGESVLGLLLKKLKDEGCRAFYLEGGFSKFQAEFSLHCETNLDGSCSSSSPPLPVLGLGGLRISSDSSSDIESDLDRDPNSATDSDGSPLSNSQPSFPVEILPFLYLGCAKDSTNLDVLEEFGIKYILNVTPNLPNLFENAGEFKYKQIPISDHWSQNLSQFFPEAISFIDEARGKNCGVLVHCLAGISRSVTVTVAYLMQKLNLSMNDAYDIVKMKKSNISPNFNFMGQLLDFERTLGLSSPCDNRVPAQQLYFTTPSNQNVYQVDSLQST
# Description: as §1
block of Dusp1 activity in chemical complementation assay (human Dusp1),block of Dusp6 activity in chemical complementation assay (Dusp6),SMILES,"IC50 (human Dusp1; 15 min compound, read-out: IC50, Dusp1 inhibition (pERK restoration))","IC50 (Dusp6; 15 min compound, read-out: IC50, Dusp6 inhibition (pERK restoration))"
did not block,did not block,"O=C1CC(NC2CCCCC2)c2ccccc21 (stereo not shown) [Compound 17, 3-(Cyclohexylamino)-2,3-dihydro-1H-inden-1-one]",,
,,"O=C1/C(=C/c2ccccc2)C(NC2CCCCC2)c2ccccc21 (stereo not shown) [Compound 3, (E)-2-benzylidene-3-(cyclohexylamino)-2,3-dihydro-1H-inden-1-one]",11.2 µM,16 µM
